Literature values, collected in patent US20050261210A1, “Nonsense suppressor agents in treatment of cutaneous and gastrointestinal disorders” (priority 2004, published 2005).
“Also recorded” adds a separate entry of the source. Read-outs that look alike come from different tables or passages of the source.

Key:
[1] = tested on: dystrophin; conditions: cultured muscle cells from mdx mice
[2] = tested on: dystrophin; conditions: mdx mice, systemic treatment
[3] = tested on: dystrophin; conditions: Duchenne muscular dystrophy patients with nonsense mutations
[4] = tested on: CFTR; conditions: cultured respiratory epithelial cells with CFTR nonsense mutations
[5] = tested on: CFTR; conditions: transgenic mouse model of nonsense-mutated CFTR
[6] = tested on: CFTR; conditions: cystic fibrosis patients with CFTR nonsense mutation, application to nasal mucosa
[7] = tested on: termination suppression (readthrough); conditions: for levels of termination suppression: in vitro assay, compared with tobramycin

| Molecule | dystrophin level [1] | dystrophin expression [2] | muscle injury ([2]; versus untreated mdx mice) | dystrophin expression [3] | expression of functional CFTR protein [4] | expression of functional CFTR protein [5] | functional CFTR protein [6] | levels of termination suppression [7] | level of read-through ([7]; compared with gentamicin) |
| --- | --- | --- | --- | --- | --- | --- | --- | --- | --- |
| gentamicin | detectable levels of dystrophin | expression of the protein throughout the animal | protection against the muscle injury | treatment-dependent expression of dystrophin in some patients; also recorded: lack of response in others | restore expression of functional CFTR protein | restore expression of functional CFTR protein | restoration of functional CFTR protein | higher than those provided by tobramycin | – |
| NCC[C@H](O)C(=O)N[C@@H]1C[C@H](N)[C@@H](O[C@H]2O[C@H](CN)[C@@H](O)[C@H](O)[C@H]2O)[C@H](O)[C@H]1O[C@H]1O[C@H](CO)[C@@H](O)[C@H](N)[C@H]1O [amikacin] | – | – | – | – | – | – | – | higher than those provided by tobramycin | higher level of read-through than gentamicin in some contexts |
